# From patent US20030165582A1, “Preparations that contain an extract of the plant pistia stratiotes” (priority 2000, published 2003)
# Tested on: human adipocytes
# Test: Lipolytic activity: glycerol released from isolated adipocytes
# Format: cell-based
# Settings: 90 minutes at 37° C., reference value=0
# Protocol: Method: The adipocytes were isolated from human subcutaneous tissue by the standard Rodbell method (J. of Biolog. Chem.; 1964, 239, 375-380). The extract of Examples 1 to 3 each with two extracts (batches A and B) and the comparison substances were dissolved in a Hanks reference medium with a particular salt concentration (Cell and Tissue Culture, Ed: J. Paul, Churchill and Livingstone, 1975, page 484) and then contacted with the isolated adipocytes for 90 minutes at 37° C. Two to six adipocyte preparations were investigated. The percentage increase in glycerol released was spectrophotometrically determined in the supernatant of the medium by the Carpéné method (J. de Pharmacologie; 1981; 12;219-224).
Structure (SMILES),% Increase in glycerol released (0.1 μM),% Increase in glycerol released (1.0 mM)
CC(C)NCC(O)c1ccc(O)c(O)c1 (centres unmarked) [Isoprenalin],129%,
Cn1c(=O)c2[nH]cnc2n(C)c1=O [Theophylline],,187%
